According to ChEMBL document CHEMBL1201862, “PubChem BioAssay data set” (2004):
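A five-concentration, 48-hour dose response in 96-well plates underlies each endpoint, interpolated linearly between surrounding concentrations. Here, GI50 denotes the concentration required for 50% inhibition of growth.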 Active and inactive are the calls of the source. Rule as the data show it: active = GI50 up to about 1.1 µM and inactive = higher.

Experiments:
Assay in all cases: NCI-60 cell line screen, 48 h
OVCAR-3 = tested on: OVCAR-3
IGROV-1 = tested on: IGROV-1
HT-29 = tested on: HT-29
NCI-H522 = tested on: NCI-H522
NCI-H460 = tested on: NCI-H460
SNB-75 = tested on: SNB-75
SK-MEL-5 = tested on: SK-MEL-5
SF-295 = tested on: SF-295
UACC-257 = tested on: UACC-257
SN12C = tested on: SN12C
HOP-62 = tested on: HOP-62
SK-MEL-2 = tested on: SK-MEL-2
CCRF-CEM = tested on: CCRF-CEM
SW-620 = tested on: SW-620
RPMI-8226 = tested on: RPMI-8226
SF-268 = tested on: SF-268
SNB-19 = tested on: SNB-19
SK-MEL-28 = tested on: SK-MEL-28
K562 = tested on: K562
NCI-H23 = tested on: NCI-H23

Row | SMILES | GI50 (OVCAR-3) | GI50 (IGROV-1) | GI50 (HT-29) | GI50 (NCI-H522) | GI50 (NCI-H460) | GI50 (SNB-75) | GI50 (SK-MEL-5) | GI50 (SF-295) | GI50 (UACC-257) | GI50 (SN12C) | GI50 (HOP-62) | GI50 (SK-MEL-2) | GI50 (CCRF-CEM) | GI50 (SW-620) | GI50 (RPMI-8226) | GI50 (SF-268) | GI50 (SNB-19) | GI50 (SK-MEL-28) | GI50 (K562) | GI50 (NCI-H23)
1 | COc1ccc2nc3n(c2c1)C(=O)c1ccccc1-3 | > 100 µM (inactive) | > 100 µM (inactive) | > 100 µM (inactive) | > 100 µM (inactive) | > 100 µM (inactive) | > 100 µM (inactive) | > 100 µM (inactive) | > 100 µM (inactive) | > 100 µM (inactive) | > 100 µM (inactive) | > 100 µM (inactive) | > 100 µM (inactive) | > 100 µM (inactive) | > 100 µM (inactive) | > 100 µM (inactive) | > 100 µM (inactive) | > 100 µM (inactive) | > 100 µM (inactive) | > 100 µM (inactive) | > 100 µM (inactive)
2 | NC(=O)c1csc(C2OC(COP(=O)(O)CP(=O)(O)OCC3OC(n4cnc5c(N)ncnc54)C(O)C3O)C(O)C2O)n1 (stereo not given) | > 100 µM (inactive) | > 100 µM (inactive) | 87.7 µM (inactive) | 68.1 µM (inactive) | > 100 µM (inactive) | > 100 µM (inactive) | > 100 µM (inactive) | 53.7 µM (inactive) | > 100 µM (inactive) | > 100 µM (inactive) | > 100 µM (inactive) | > 100 µM (inactive) | > 100 µM (inactive) | > 100 µM (inactive) | > 100 µM (inactive) | > 100 µM (inactive) | > 100 µM (inactive) | > 100 µM (inactive) | 55.3 µM (inactive) | > 100 µM (inactive)
3 | O=C(O)c1cc(-c2ccc3cc4c(cc3c2)OCO4)nc2ccccc12 | 41.6 µM (inactive) | 29 µM (inactive) | 25.9 µM (inactive) | 35.3 µM (inactive) | 12.9 µM (inactive) | 49.7 µM (inactive) | 24 µM (inactive) | 23.8 µM (inactive) | 5.41 µM (inactive) | 20.8 µM (inactive) | 41.1 µM (inactive) | 62.7 µM (inactive) | 11.3 µM (inactive) | 45.2 µM (inactive) | 45.9 µM (inactive) | 28.6 µM (inactive) | 25.7 µM (inactive) | 47.5 µM (inactive) | 32.5 µM (inactive) | 43.8 µM (inactive)
4 | Cc1nc2ccccc2n1Cc1nnc(N)o1 | > 100 µM (inactive) | > 100 µM (inactive) | > 100 µM (inactive) | > 100 µM (inactive) | > 100 µM (inactive) | > 100 µM (inactive) | > 100 µM (inactive) | > 100 µM (inactive) | > 100 µM (inactive) | > 100 µM (inactive) | > 100 µM (inactive) | > 100 µM (inactive) | > 100 µM (inactive) | > 100 µM (inactive) | > 100 µM (inactive) | > 100 µM (inactive) | > 100 µM (inactive) | > 100 µM (inactive) | > 100 µM (inactive) | > 100 µM (inactive)
5 | CC(=O)N/C(=C\c1ccc(Cc2nc3c([nH]2)C(=O)c2ccccc2C3=O)cc1)c1nc2c([nH]1)C(=O)c1ccccc1C2=O | > 100 µM (inactive) | > 100 µM (inactive) | > 100 µM (inactive) | > 100 µM (inactive) | > 100 µM (inactive) | 86.3 µM (inactive) | > 100 µM (inactive) | > 100 µM (inactive) | > 100 µM (inactive) | > 100 µM (inactive) | > 100 µM (inactive) | > 100 µM (inactive) | > 100 µM (inactive) | > 100 µM (inactive) | > 100 µM (inactive) | > 100 µM (inactive) | > 100 µM (inactive) | > 100 µM (inactive) | > 100 µM (inactive) | > 100 µM (inactive)
6 | COc1ccccc1C(=O)NCC1CCCN2CCCCC12 (stereo not given) | > 100 µM (inactive) | > 100 µM (inactive) | > 100 µM (inactive) | > 100 µM (inactive) | > 100 µM (inactive) | > 100 µM (inactive) | > 100 µM (inactive) | 1.24 µM (inactive) | > 100 µM (inactive) | > 100 µM (inactive) | > 100 µM (inactive) | > 100 µM (inactive) | > 100 µM (inactive) | > 100 µM (inactive) | > 100 µM (inactive) | > 100 µM (inactive) | > 100 µM (inactive) | > 100 µM (inactive) | > 100 µM (inactive) | > 100 µM (inactive)
7 | CCOC(=O)C1=C(C)N(c2ccc(Cl)cc2)C2(O)C=CC(=O)C3C(=O)N(c4ccccc4)C(=O)C132 (stereo not given) | 1.28 µM (inactive) | 1.54 µM (inactive) | 1.82 µM (inactive) | 1.1 µM (active) | 2.3 µM (inactive) | 1.77 µM (inactive) | 1.6 µM (inactive) | 2.19 µM (inactive) | 2.29 µM (inactive) | 2.3 µM (inactive) | 2.02 µM (inactive) | 1.78 µM (inactive) | 0.476 µM (active) | 1.54 µM (inactive) | 1.07 µM (active) | 1.76 µM (inactive) | 2.18 µM (inactive) | 1.51 µM (inactive) | 3.08 µM (inactive) | 1.93 µM (inactive)
8 | CC12CCCCC1C(=O)C2(Cl)Cl (stereo not given) | 1.77 µM (inactive) | 2.96 µM (inactive) | 1.3 µM (inactive) | 1.89 µM (inactive) | 2.28 µM (inactive) | 3.34 µM (inactive) | 1.83 µM (inactive) | 1.66 µM (inactive) | 2.06 µM (inactive) | 2.98 µM (inactive) | 1.6 µM (inactive) | 1.95 µM (inactive) | 1.42 µM (inactive) | 2.05 µM (inactive) | 1.31 µM (inactive) | 2.7 µM (inactive) | 3.31 µM (inactive) | 1.8 µM (inactive) | 1.83 µM (inactive) | 2.39 µM (inactive)
9 | CC1(C)N=C(Oc2ccccc2)n2nccc2N1 | > 100 µM (inactive) | > 100 µM (inactive) | > 100 µM (inactive) | 40.9 µM (inactive) | 75 µM (inactive) | > 100 µM (inactive) | > 100 µM (inactive) | > 100 µM (inactive) | > 100 µM (inactive) | > 100 µM (inactive) | > 100 µM (inactive) | > 100 µM (inactive) | > 100 µM (inactive) | > 100 µM (inactive) | > 100 µM (inactive) | > 100 µM (inactive) | > 100 µM (inactive) | > 100 µM (inactive) | 82.8 µM (inactive) | > 100 µM (inactive)
10 | CN(C)c1ccc(/C=C2/SC(=S)NC2=O)cc1 | > 100 µM (inactive) | > 100 µM (inactive) | > 100 µM (inactive) | > 100 µM (inactive) | > 100 µM (inactive) | 95.3 µM (inactive) | > 100 µM (inactive) | > 100 µM (inactive) | > 100 µM (inactive) | > 100 µM (inactive) | 52.2 µM (inactive) | > 100 µM (inactive) | > 100 µM (inactive) | > 100 µM (inactive) | > 100 µM (inactive) | > 100 µM (inactive) | > 100 µM (inactive) | > 100 µM (inactive) | > 100 µM (inactive) | > 100 µM (inactive)
11 | COc1ccc(Cc2nccc3cc(OC)c(OC)cc23)cc1 | 50.4 µM (inactive) | 95.1 µM (inactive) | 67.9 µM (inactive) | 37.8 µM (inactive) | 90.6 µM (inactive) | 33.1 µM (inactive) | 35.7 µM (inactive) | 32.4 µM (inactive) | 16.4 µM (inactive) | 36.9 µM (inactive) | > 100 µM (inactive) | > 100 µM (inactive) | 65.6 µM (inactive) | > 100 µM (inactive) | 20.9 µM (inactive) | 65.5 µM (inactive) | 54.6 µM (inactive) | > 100 µM (inactive) | 48 µM (inactive) | 37.2 µM (inactive)
12 | CCCCC1(N=[N+]=[N-])C(=O)c2cccc3c2N(CCC3)C1=O (stereo not given) | 44.6 µM (inactive) | > 100 µM (inactive) | > 100 µM (inactive) | > 100 µM (inactive) | > 100 µM (inactive) | > 100 µM (inactive) | > 100 µM (inactive) | > 100 µM (inactive) | > 100 µM (inactive) | > 100 µM (inactive) | > 100 µM (inactive) | > 100 µM (inactive) | 91.6 µM (inactive) | > 100 µM (inactive) | > 100 µM (inactive) | > 100 µM (inactive) | > 100 µM (inactive) | > 100 µM (inactive) | > 100 µM (inactive) | > 100 µM (inactive)
13 | Nc1cc2c(nc3c4ccccc4c(N)cc3[n+]2-c2cccc3ccccc23)c2ccccc12.Nc1cc2c(nc3c4ccccc4ccc3[n+]2-c2cccc3ccccc23)c2ccccc12 | 0.593 µM (active) | 1.71 µM (inactive) | 1.36 µM (inactive) | 1.25 µM (inactive) | 0.377 µM (active) | 1.68 µM (inactive) | 1.7 µM (inactive) | 2.2 µM (inactive) | 1.15 µM (inactive) | 2.49 µM (inactive) | 2.81 µM (inactive) | 1.57 µM (inactive) | 0.229 µM (active) | 1.55 µM (inactive) | 0.146 µM (active) | 3.37 µM (inactive) | 4.56 µM (inactive) | 7.06 µM (inactive) | 0.448 µM (active) | 1.15 µM (inactive)
14 | O=C(O)c1ccc(NS(=O)(=O)Cc2ccccc2)cc1 | > 100 µM (inactive) | > 100 µM (inactive) | > 100 µM (inactive) | > 100 µM (inactive) | > 100 µM (inactive) | > 100 µM (inactive) | > 100 µM (inactive) | > 100 µM (inactive) | > 100 µM (inactive) | > 100 µM (inactive) | > 100 µM (inactive) | > 100 µM (inactive) | > 100 µM (inactive) | > 100 µM (inactive) | > 100 µM (inactive) | > 100 µM (inactive) | > 100 µM (inactive) | > 100 µM (inactive) | > 100 µM (inactive) | > 100 µM (inactive)
